One assay has as its system NF-κB pathway. As to the kind of experiment: Reporter gene expression assay for NFκB axis in THP1-Dual cells (secreted SEAP). Format: cell-based, human. The conditions noted are these: Homo sapiens, THP1-Dual, 20 h, 20 hr stimulation, QUANTI-Blue SEAP, EC50 range, read-out: THP-NFKB activity. The procedure: (§1) THP1-Dual™ cells (Invivogen) were derived from the human THP-1 monocyte cell line by stable integration of two inducible reporter constructs. As a result, THP1-Dual™ cells allow the simultaneous study of the NF-κB pathway, by monitoring the activity of secreted SEAP, and the IRF pathway, by assessing the activity of a secreted luciferase (Lucia). […] THP1-Dual™ cells were seeded in 384-well plates in growth medium and stimulated with novel compounds. After 20 hr of stimulation supernatant were removed and reporter proteins were readily measured in the cell culture supernatant using QUANTI-Blue™ (Invivogen), a SEAP detection reagent, and QUANTI-Luc™ (Invivogen), a luciferase detection reagent on a Spectramax i3X luminometer. EC50 value ranges for exemplary compounds tested in the above assay are given.
In general terms: Reporter assays use an easily measured gene product as a stand-in for the process of interest.

The test system of a further assay is IRF pathway. As to the kind of experiment: Reporter gene expression assay for IRF axis in THP1-Dual cells (secreted Lucia luciferase). Format: cell-based, human. The conditions noted are these: Homo sapiens, THP1-Dual, 20 h, 20 hr stimulation, QUANTI-Luc, EC50 range, read-out: THP-IRF activity. As for the experimental part:
as §1

The target of the next assay is T1, WT/R232 STING protein (Homo sapiens, UniProt Q86WV6, H232R).
T1 construct: host or cells: HEK293T
As to the kind of experiment: Luciferase reporter assay in HEK293T-hSTING-Luciferase cells (R232). Format: cell-based. To be noted: 20 hr stimulation, EC50 range. An outline of the steps: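 Clonal HEK293T cells stably expressing human STING R232 plus an ISRE/ISG54-driven secreted luciferase reporter, stimulated with compounds for 20 hr. Luciferase in supernatant read by luminescence; activity given as fold-induction over baseline.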

The next assay concerns the target T2, hSTING (H232) (Homo sapiens, UniProt Q86WV6).
T2 construct: host or cells: HEK293T
As to the kind of experiment: Luciferase reporter assay in HEK293T-hSTING-Luciferase cells (H232/REF polymorph). The conditions noted are these: EC50 range. Format: cell-based. An excerpt:
(§2) • a) Stable STING expressing cells—Stable HEK293T STING-expressing cell lines were generated using plasmids purchased from Invivogen, CA, USA, that contain STING cDNA cloned into the pUNO-1 vector under hEF1-HTLV promoter and containing the Blasticidin selection cassette. The plasmids hSTING (R232), hSTING (H232), hSTING (HAQ) were directly procured from Invivogen while hSTING (AQ) and hSTING (Q) were derived from hSTING (HAQ) and hSTING (R232) plasmids respectively by using a PCR based site directed mutagenesis method. These vectors were individually transfected into HEK293T cells using Lipofectamine (Invitrogen) and transfected cells were selected under Blasticidin selection. These transfected cells were further subjected to clonal selection using the limiting dilution method to obtain clonally pure populations of HEK cells transfected with each of the above mentioned human STING variants. Only those clones were selected in which ligand independent activation of STING was minimal. • b) Stable Luciferase reporter gene expressing cells—Stable HEK293T Luciferase reporter gene expressing cell lines were generated using pCDNA4 plasmids under an IRF-inducible promoter. This promoter is comprised of five tandem interferon-stimulated response elements (ISRE) fused to an ISG54 minimal promoter. This vector was transfected into HEK293T cells using Lipofectamine (Invitrogen) and transfected cells were selected under Zeocin selection. These transfected cells were further subjected to clonal selection using the limiting dilution method to obtain clonally pure populations of HEK cells transfected the Luciferase reporter construct. Only those clones were selected in which ligand independent induction of luciferase was minimal.
(§3) 5×10^5 clonally selected HEK293T-hSTING-Luciferase cells were seeded in 384-well plates in growth medium and stimulated with novel compounds. After 20 hr of stimulation supernatant were removed and secretary reporter gene activity were measured using the Quanti-Luc detection system (Invivogen) on a Spectramax i3X luminometer.
(§4) The 5 major polymorphisms of human STING are shown in FIG. 1, with their prevalence in human populations indicated.

Another assay deals with T3, hSTING (HAQ) (Homo sapiens, UniProt Q86WV6, G230A/H232R/R293Q/R71H).
T3 construct: host or cells: HEK293T
As to the kind of experiment: Luciferase reporter assay in HEK293T-hSTING-Luciferase cells (HAQ polymorph). Format: cell-based. The conditions noted are these: EC50 range.
Text: as §2, §3, §4

T1 sequence (Q86WV6 whole entry H232R): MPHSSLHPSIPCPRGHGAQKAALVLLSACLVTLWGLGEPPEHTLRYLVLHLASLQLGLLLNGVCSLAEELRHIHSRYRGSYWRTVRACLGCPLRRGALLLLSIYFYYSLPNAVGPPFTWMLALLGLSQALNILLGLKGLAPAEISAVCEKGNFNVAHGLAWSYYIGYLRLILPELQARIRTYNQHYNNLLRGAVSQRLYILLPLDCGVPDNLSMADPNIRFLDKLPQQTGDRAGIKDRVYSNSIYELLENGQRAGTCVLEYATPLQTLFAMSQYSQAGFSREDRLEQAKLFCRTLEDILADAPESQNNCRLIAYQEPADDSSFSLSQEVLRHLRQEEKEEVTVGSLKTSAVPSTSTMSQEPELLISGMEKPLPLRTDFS
T3 sequence (Q86WV6 whole entry R71H/G230A/H232R/R293Q): as the sequence (Q86WV6 whole entry H232R) above, with R71H, G230A, R293Q counted along it
T2 sequence (Q86WV6 whole entry): as the sequence (Q86WV6 whole entry H232R) above, with R232H counted along it

`CC1(C)C(=O)N(Cc2c(F)cccc2Cl)c2cc(C(=O)NCc3cccc(F)c3)ccc21` [Example 12, 1-(2-chloro-6-fluorobenzyl)-N-(3-fluorobenzyl)-3,3-dimethyl-2-oxoindoline-6-carboxamide]: the EC50 with NF-κB pathway was over 10 µM; in the assay on IRF pathway, over 10 µM; at WT/R232 STING protein it was at most 1 µM; at hSTING (H232), 1 to 10 µM; at hSTING (HAQ), 1 to 10 µM.

For `Cc1ccc(CNC(=O)c2ccc3c(c2)N(Cc2c(F)cccc2Cl)C(=O)C3(C)C)o1` [Example 13, 1-(2-chloro-6-fluorobenzyl)-3,3-dimethyl-N-((5-methylfuran-2-yl)methyl)-2-oxoindoline-6-carboxamide], the EC50 in the assay with NF-κB pathway is over 10 µM; in the assay on IRF pathway, over 10 µM; at WT/R232 STING protein, at most 1 µM; at hSTING (H232), 1 to 10 µM; at hSTING (HAQ) it was 1 to 10 µM.

For `CC1(C)C(=O)N(Cc2cccc(F)c2)c2cc(C(=O)NCc3c(F)cc(F)cc3F)ccc21` [Example 14, 1-(3-fluorobenzyl)-3,3-dimethyl-2-oxo-N-(2,4,6-trifluorobenzyl)indoline-6-carboxamide], the EC50 in the assay on NF-κB pathway was 1 to 10 µM; in the assay on IRF pathway it was 1 to 10 µM; at WT/R232 STING protein it was at most 1 µM; on hSTING (H232) it was 1 to 10 µM; at hSTING (HAQ), 1 to 10 µM.

Regarding `Cc1ccc(CNC(=O)c2ccc3c(c2)N(Cc2cc(F)cc(F)c2)C(=O)C3(C)C)o1` [Example 16, 1-(3,5-difluorobenzyl)-3,3-dimethyl-N-((5-methylfuran-2-yl)methyl)-2-oxoindoline-6-carboxamide], the EC50 is over 10 µM with NF-κB pathway; over 10 µM in the assay with IRF pathway; 1 to 10 µM on WT/R232 STING protein; 1 to 10 µM at hSTING (H232); 1 to 10 µM at hSTING (HAQ).

Take `Cc1cccc(CN2C(=O)C(C)(C)c3ccc(C(=O)NCc4c(F)cc(F)cc4F)cc32)c1` [Example 18, 3,3-dimethyl-1-(3-methylbenzyl)-2-oxo-N-(2,4,6-trifluorobenzyl)indoline-6-carboxamide]: the EC50 in the assay with NF-κB pathway was 1 to 10 µM; with IRF pathway it was over 10 µM; at WT/R232 STING protein, at most 1 µM; on hSTING (H232) it was 1 to 10 µM; on hSTING (HAQ), 1 to 10 µM.

As to `CC1(C)C(=O)N(Cc2cccc(Cl)c2)c2cc(C(=O)NCc3c(F)cc(F)cc3F)ccc21` [Example 19, 1-(3-chlorobenzyl)-3,3-dimethyl-2-oxo-N-(2,4,6-trifluorobenzyl)indoline-6-carboxamide], the EC50 with NF-κB pathway was 1 to 10 µM; with IRF pathway, over 10 µM; on WT/R232 STING protein, at most 1 µM; on hSTING (H232) it was 1 to 10 µM; on hSTING (HAQ), 1 to 10 µM.

Consider `CC1(C)C(=O)N(Cc2ccc(F)cc2)c2cc(C(=O)NCc3c(F)cc(F)cc3F)ccc21` [Example 20, 1-(4-fluorobenzyl)-3,3-dimethyl-2-oxo-N-(2,4,6-trifluorobenzyl)indoline-6-carboxamide], for which the EC50 with NF-κB pathway was 1 to 10 µM; in the assay on IRF pathway, 1 to 10 µM; on WT/R232 STING protein, at most 1 µM; at hSTING (H232) it was 1 to 10 µM; at hSTING (HAQ), at most 1 µM.

As to `CC1(C)C(=O)N(Cc2cc(F)cc(F)c2)c2cc(C(=O)NCc3cc4ccccc4o3)ccc21` [Example 23, N-(benzofuran-2-ylmethyl)-1-(3,5-difluorobenzyl)-3,3-dimethyl-2-oxoindoline-6-carboxamide], the EC50 in the assay on NF-κB pathway was 1 to 10 µM; in the assay on IRF pathway, over 10 µM; on WT/R232 STING protein, at most 1 µM; on hSTING (H232), 1 to 10 µM; on hSTING (HAQ), 1 to 10 µM.

`CC1(C)C(=O)N(Cc2c(F)cccc2Cl)c2cc(C(=O)NCc3ccc(F)cc3)ccc21` [Example 25, 1-(2-chloro-6-fluorobenzyl)-N-(4-fluorobenzyl)-3,3-dimethyl-2-oxoindoline-6-carboxamide]: the EC50 in the assay on NF-κB pathway was 1 to 10 µM; in the assay with IRF pathway, over 10 µM; at WT/R232 STING protein it was at most 1 µM; at hSTING (H232) it was 1 to 10 µM; on hSTING (HAQ), 1 to 10 µM.

Source of the values: patent US20200172483A1, “HETEROCYCLIC SMALL MOLECULE MODULATORS OF HUMAN STING” (Curadev Pharma Limited, priority 2017, published 2020).
